Reference: ChEMBL document CHEMBL5512659, “Structure optimizing of flavonoids against both MRSA and VRE” (Eur J Med Chem, 2024)
≈ marks a conversion by molar mass, not a printed value. Calls of active or inactive are those of the source. The rule behind the calls is not given here.

Columns and labels:
Staphylococcus aureus [1] = test: Antibacterial activity against methicillin resistant Staphylococcus aureus clinical isolate 003; type: functional
Enterococcus faecalis [2] = test: Antibacterial activity against multidrug resistant Enterococcus faecalis ATCC 51299; type: functional
Staphylococcus aureus [3] = test: Antibacterial activity against methicillin resistant Staphylococcus aureus clinical isolate 031; type: functional
Staphylococcus aureus [4] = test: Antibacterial activity against methicillin resistant Staphylococcus aureus clinical isolate 011; type: functional
Staphylococcus aureus [5] = test: Antibacterial activity against Staphylococcus aureus clinical isolate 29; type: functional
Staphylococcus aureus [6] = test: Antibacterial activity against Staphylococcus aureus clinical isolate 31; type: functional
Enterococcus faecalis [7] = test: Antibacterial activity against Enterococcus faecalis clinical isolate 7; type: functional
Enterococcus faecalis [8] = test: Antibacterial activity against Enterococcus faecalis clinical isolate 13; type: functional
Enterococcus faecalis [9] = test: Antibacterial activity against multidrug resistant Enterococcus faecalis ATCC 51299 assessed as resistance development by measuring fold increase in MIC measured after 20 passages; type: functional
Staphylococcus aureus [10] = test: Antibiofilm activity in methicillin resistant Staphylococcus aureus clinical isolate 003 by crystal violet staining based analysis; type: functional
Enterococcus faecalis [11] = test: Antibiofilm activity in multidrug resistant Enterococcus faecalis ATCC 51299 by crystal violet staining based analysis; type: functional
Enterococcus faecalis [12] = test: Antibacterial activity against multidrug resistant Enterococcus faecalis ATCC 51299 infected in cyclophosphamide immunosuppressed mouse model of abdominal infection assessed as eradication of bacterial colonies in liver at 5 mg/kg measured after 60 hrs relative to control; type: functional
Enterococcus faecalis [13] = test: Antibacterial activity against multidrug resistant Enterococcus faecalis ATCC 51299 infected in cyclophosphamide immunosuppressed mouse model of abdominal infection assessed as eradication of bacterial colonies in spleen at 5 mg/kg measured after 60 hrs relative to control; type: functional
Enterococcus faecalis [14] = test: Antibacterial activity against multidrug resistant Enterococcus faecalis ATCC 51299 infected in cyclophosphamide immunosuppressed mouse model of abdominal infection assessed as eradication of bacterial colonies in kidney at 5 mg/kg measured after 60 hrs relative to control; type: functional
Enterococcus faecalis [15] = test: Antibacterial activity against multidrug resistant Enterococcus faecalis ATCC 51299 infected in cyclophosphamide immunosuppressed mouse model of abdominal infection assessed as eradication of bacterial colonies in ascites at 5 mg/kg measured after 60 hrs relative to control; type: functional
[16] = Toxicity in Galleria mellonella assessed as survival rate at 10 mg/kg observed after 7 days; type: organism-based; details: in vivo, time 7 day
Staphylococcus aureus [17] = test: Antibacterial activity against methicillin resistant Staphylococcus aureus clinical isolate 003 infected in cyclophosphamide immunosuppressed mouse model of skin wound infection assessed as wound healing at 5 mg/kg administered for 7 days and measured on day 8; type: functional, organism-based; details: time 8.0 day
Staphylococcus aureus [18] = test: Antibacterial activity against methicillin resistant Staphylococcus aureus clinical isolate 003 infected in cyclophosphamide immunosuppressed mouse model of skin wound infection assessed as reduction in bacterial load in wound at 5 mg/kg administered for 7 days and measured on day 8 (reference value: 1.6 x 10^8 CFU); type: functional; details: time 8 day

SMILES	MIC (Staphylococcus aureus [1])	MIC (Enterococcus faecalis [2])	MIC (Staphylococcus aureus [3])	MIC (Staphylococcus aureus [4])	MIC (Staphylococcus aureus [5])	MIC (Staphylococcus aureus [6])	MIC (Enterococcus faecalis [7])	MIC (Enterococcus faecalis [8])	fold change (FC) (Enterococcus faecalis [9])	MBEC (Staphylococcus aureus [10])	MBEC (Enterococcus faecalis [11])	Activity (Enterococcus faecalis [12])	Activity (Enterococcus faecalis [13])	Activity (Enterococcus faecalis [14])	Activity (Enterococcus faecalis [15])	survival at 168 h [16]	Activity (Staphylococcus aureus [17])	Activity (Staphylococcus aureus [18])
CCCCCCc1c(-c2ccc(OCCCCN3CCCCC3)cc2OCCCCN2CCCCC2)oc2cc(OC)cc(O)c2c1=O	2 µg/mL (≈ 3.02 µM)	2 µg/mL (≈ 3.02 µM)	2 µg/mL (≈ 3.02 µM)	1 µg/mL (≈ 1.51 µM)	2 µg/mL (≈ 3.02 µM)	1 µg/mL (≈ 1.51 µM)	2 µg/mL (≈ 3.02 µM)	1 µg/mL (≈ 1.51 µM)										
CCCCCCc1c(-c2ccc(OCCCCCCN(C)C)cc2OCCCCCCN(C)C)oc2cc(OC)cc(O)c2c1=O	2 µg/mL (≈ 3.13 µM)	4 µg/mL (≈ 6.26 µM)	2 µg/mL (≈ 3.13 µM)	4 µg/mL (≈ 6.26 µM)	2 µg/mL (≈ 3.13 µM)	2 µg/mL (≈ 3.13 µM)	4 µg/mL (≈ 6.26 µM)	1 µg/mL (≈ 1.57 µM)										
CCCCCCc1c(-c2ccc(OCCCCN(CC)CC)cc2OCCCCN(CC)CC)oc2cc(OC)cc(O)c2c1=O	2 µg/mL (≈ 3.13 µM)	4 µg/mL (≈ 6.26 µM)	2 µg/mL (≈ 3.13 µM)	2 µg/mL (≈ 3.13 µM)	2 µg/mL (≈ 3.13 µM)	1 µg/mL (≈ 1.57 µM)	4 µg/mL (≈ 6.26 µM)	2 µg/mL (≈ 3.13 µM)										
CCCCCCc1c(-c2ccc(OCCCCNCCC)cc2OCCCCNCCC)oc2cc(OC)cc(O)c2c1=O	2 µg/mL (≈ 3.27 µM)	2 µg/mL (≈ 3.27 µM)	2 µg/mL (≈ 3.27 µM)	2 µg/mL (≈ 3.27 µM)	2 µg/mL (≈ 3.27 µM)	2 µg/mL (≈ 3.27 µM)	2 µg/mL (≈ 3.27 µM)	2 µg/mL (≈ 3.27 µM)										
CC1(C)S[C@@H]2[C@H](NC(=O)[C@H](N)c3ccccc3)C(=O)N2[C@H]1C(=O)O [AMPICILLIN]	> 128 µg/mL	2 µg/mL (≈ 5.72 µM)	> 128 µg/mL	> 128 µg/mL	2 µg/mL (≈ 5.72 µM)	2 µg/mL (≈ 5.72 µM)	2 µg/mL (≈ 5.72 µM)	2 µg/mL (≈ 5.72 µM)	16	>256 µg/mL	>256 µg/mL	90.58%	83.11%	95.99%	89.18%			
CN[C@H](CC(C)C)C(=O)N[C@H]1C(=O)N[C@@H](CC(N)=O)C(=O)N[C@H]2C(=O)N[C@H]3C(=O)N[C@H](C(=O)N[C@H](C(=O)O)c4cc(O)cc(O)c4-c4cc3ccc4O)[C@H](O)c3ccc(c(Cl)c3)Oc3cc2cc(c3O[C@@H]2O[C@H](CO)[C@@H](O)[C@H](O)[C@H]2O[C@H]2C[C@](C)(N)[C@H](O)[C@H](C)O2)Oc2ccc(cc2Cl)[C@H]1O [VANCOMYCIN]		> 128 µg/mL						2 µg/mL (≈ 1.38 µM)		>256 µg/mL	>256 µg/mL					80%	Active	5.1 10^6CFU
CCCCCCc1c(-c2ccc(OCCCCNC3CCCCC3)cc2OCCCCNC2CCCCC2)oc2cc(OC)cc(O)c2c1=O	1 µg/mL (≈ 1.45 µM)	2 µg/mL (≈ 2.89 µM)	4 µg/mL (≈ 5.79 µM)	2 µg/mL (≈ 2.89 µM)	1 µg/mL (≈ 1.45 µM)	2 µg/mL (≈ 2.89 µM)	1 µg/mL (≈ 1.45 µM)	1 µg/mL (≈ 1.45 µM)										
CCCCCCc1c(-c2ccc(OCCCCNCC)cc2OCCCCNCC)oc2cc(OC)cc(O)c2c1=O	1 µg/mL (≈ 1.72 µM)	2 µg/mL (≈ 3.43 µM)	2 µg/mL (≈ 3.43 µM)	2 µg/mL (≈ 3.43 µM)	2 µg/mL (≈ 3.43 µM)	1 µg/mL (≈ 1.72 µM)	2 µg/mL (≈ 3.43 µM)	1 µg/mL (≈ 1.72 µM)										
CCCCCCc1c(-c2ccc(OCCN(C)C)cc2OCCN(C)C)oc2cc(OC)cc(O)c2c1=O	1 µg/mL (≈ 1.9 µM)	4 µg/mL (≈ 7.59 µM)	4 µg/mL (≈ 7.59 µM)	2 µg/mL (≈ 3.8 µM)	1 µg/mL (≈ 1.9 µM)	2 µg/mL (≈ 3.8 µM)	4 µg/mL (≈ 7.59 µM)	2 µg/mL (≈ 3.8 µM)										
CCCCCCc1c(-c2ccc(OCCCCN3CCCC(C)C3)cc2OCCCCN2CCCC(C)C2)oc2cc(OC)cc(O)c2c1=O (configuration not stated)	1 µg/mL (≈ 1.45 µM)	2 µg/mL (≈ 2.89 µM)	2 µg/mL (≈ 2.89 µM)	2 µg/mL (≈ 2.89 µM)	2 µg/mL (≈ 2.89 µM)	2 µg/mL (≈ 2.89 µM)	2 µg/mL (≈ 2.89 µM)	2 µg/mL (≈ 2.89 µM)										
CCCCCCc1c(-c2ccc(OCCCCNCCc3ccccc3)cc2OCCCCNCCc2ccccc2)oc2cc(OC)cc(O)c2c1=O	4 µg/mL (≈ 5.44 µM)	4 µg/mL (≈ 5.44 µM)	4 µg/mL (≈ 5.44 µM)	4 µg/mL (≈ 5.44 µM)	8 µg/mL (≈ 10.9 µM)	4 µg/mL (≈ 5.44 µM)	8 µg/mL (≈ 10.9 µM)	4 µg/mL (≈ 5.44 µM)										
CCCCCCc1c(-c2ccc(OCCCCNCc3ccc(F)cc3)cc2OCCCCNCc2ccc(F)cc2)oc2cc(OC)cc(O)c2c1=O	16 µg/mL (≈ 21.5 µM)	16 µg/mL (≈ 21.5 µM)	16 µg/mL (≈ 21.5 µM)	16 µg/mL (≈ 21.5 µM)	16 µg/mL (≈ 21.5 µM)	8 µg/mL (≈ 10.8 µM)	32 µg/mL (≈ 43.1 µM)	8 µg/mL (≈ 10.8 µM)										
CCCCCCNCCCCOc1ccc(-c2oc3cc(OC)cc(O)c3c(=O)c2CCCCCC)c(OCCCCNCCCCCC)c1	8 µg/mL (≈ 11.5 µM)	64 µg/mL (≈ 92.1 µM)	8 µg/mL (≈ 11.5 µM)	16 µg/mL (≈ 23 µM)	16 µg/mL (≈ 23 µM)	4 µg/mL (≈ 5.76 µM)	32 µg/mL (≈ 46 µM)	64 µg/mL (≈ 92.1 µM)										
CCCCCCc1c(-c2ccc(OCCCCNCCCCCCCCN)cc2OCCCCNCCCCCCCCN)oc2cc(OC)cc(O)c2c1=O	0.5 µg/mL (≈ 0.64 µM)	1 µg/mL (≈ 1.28 µM)	1 µg/mL (≈ 1.28 µM)	1 µg/mL (≈ 1.28 µM)	1 µg/mL (≈ 1.28 µM)	0.5 µg/mL (≈ 0.64 µM)	1 µg/mL (≈ 1.28 µM)	1 µg/mL (≈ 1.28 µM)										
CCCCCCc1c(-c2ccc(OCCCCN(CCC)CCC)cc2OCCCCN(CCC)CCC)oc2cc(OC)cc(O)c2c1=O	8 µg/mL (≈ 11.5 µM)	16 µg/mL (≈ 23 µM)	16 µg/mL (≈ 23 µM)	8 µg/mL (≈ 11.5 µM)	16 µg/mL (≈ 23 µM)	8 µg/mL (≈ 11.5 µM)	16 µg/mL (≈ 23 µM)	16 µg/mL (≈ 23 µM)										
CCCCCCc1c(-c2ccc(O)cc2O)oc2cc(OC)cc(O)c2c1=O	4 µg/mL (≈ 10.4 µM)	8 µg/mL (≈ 20.8 µM)	4 µg/mL (≈ 10.4 µM)	4 µg/mL (≈ 10.4 µM)	4 µg/mL (≈ 10.4 µM)	4 µg/mL (≈ 10.4 µM)	4 µg/mL (≈ 10.4 µM)	8 µg/mL (≈ 20.8 µM)										
CCCCCCc1c(-c2ccc(OCCCCNCc3ccc(C(F)(F)F)cc3)cc2OCCCCNCc2ccc(C(F)(F)F)cc2)oc2cc(OC)cc(O)c2c1=O	16 µg/mL (≈ 19 µM)	16 µg/mL (≈ 19 µM)	8 µg/mL (≈ 9.49 µM)	8 µg/mL (≈ 9.49 µM)	16 µg/mL (≈ 19 µM)	8 µg/mL (≈ 9.49 µM)	32 µg/mL (≈ 38 µM)	8 µg/mL (≈ 9.49 µM)										
